Reference: the NIST ThermoML archive (doi:10.1016/j.jct.2017.08.004)
Numbers after ± are expanded uncertainties.

Test: molar heat capacity at constant pressure
Conditions: 101.33 kPa

OC[C@@H](O)[C@H](O)[C@@H](O)CO [xylitol]
molar heat capacity at constant pressure [J/K/mol]
Conditions	Small sample (50 mg) DSC	relaxation calorimetry
261.15 K, Crystal	182.91 ± 11	–
262.13 K, Crystal	–	182.23 ± 7.4
262.15 K, Crystal	183.56 ± 11	–
263.15 K, Crystal	184.15 ± 11	–
264.15 K, Crystal	184.93 ± 11	–
265.15 K, Crystal	185.58 ± 11	–
266.15 K, Crystal	186.01 ± 11	–
267.15 K, Crystal	186.68 ± 12	–
268.15 K, Crystal	187.58 ± 12	–
269.15 K, Crystal	188.3 ± 12	–
270 K, Crystal	–	187.42 ± 11
270.15 K, Crystal	188.75 ± 12	–
271.15 K, Crystal	189.44 ± 12	–
272.13 K, Crystal	–	189.16 ± 7.7
272.15 K, Crystal	190.09 ± 12	–
273.15 K, Crystal	190.92 ± 12	189.56 ± 12
274.15 K, Crystal	191.54 ± 12	–
275.15 K, Crystal	192.36 ± 12	–
276.15 K, Crystal	193.1 ± 12	–
277.15 K, Crystal	193.74 ± 12	–
278.15 K, Crystal	194.49 ± 12	–
279.15 K, Crystal	195.25 ± 12	–
280 K, Crystal	–	194.26 ± 12
280.15 K, Crystal	195.98 ± 12	–
281.15 K, Crystal	196.83 ± 12	–
282.15 K, Crystal	197.52 ± 12	–
282.21 K, Crystal	–	195.78 ± 8
283.15 K, Crystal	198.24 ± 12	–
284.15 K, Crystal	198.78 ± 12	–
285.15 K, Crystal	199.46 ± 12	–
286.15 K, Crystal	200.2 ± 12	–
287.15 K, Crystal	200.97 ± 12	–
288.15 K, Crystal	201.79 ± 12	–
289.15 K, Crystal	202.38 ± 12	–
290 K, Crystal	–	201.22 ± 12
290.15 K, Crystal	203.24 ± 13	–
291.15 K, Crystal	204 ± 13	–
292.15 K, Crystal	204.53 ± 13	–
292.34 K, Crystal	–	202.53 ± 8.2
293.15 K, Crystal	205.39 ± 13	–
294.15 K, Crystal	206.39 ± 13	–
295.15 K, Crystal	207.02 ± 13	–
296.15 K, Crystal	207.76 ± 13	–
297.15 K, Crystal	208.58 ± 13	–
298.15 K, Crystal	209.23 ± 13	207 ± 13
299.15 K, Crystal	209.95 ± 13	–
300 K, Crystal	–	208.32 ± 13
300.15 K, Crystal	210.89 ± 13	–
301.15 K, Crystal	211.84 ± 13	–
302.15 K, Crystal	212.55 ± 13	–
302.38 K, Crystal	–	210.13 ± 8.5
303.15 K, Crystal	213.48 ± 13	–
304.15 K, Crystal	214.26 ± 13	–
305 K, Crystal	215.28 ± 13	–
305.15 K, Crystal	215.11 ± 13	–
306.15 K, Crystal	216.14 ± 13	–
307.15 K, Crystal	217.06 ± 13	–
308.15 K, Crystal	217.82 ± 13	–
309.15 K, Crystal	218.75 ± 13	–
310 K, Crystal	219.82 ± 14	–
310.15 K, Crystal	219.97 ± 14	–
311.15 K, Crystal	220.76 ± 14	–
312.15 K, Crystal	221.67 ± 14	–
313.15 K, Crystal	222.64 ± 14	–
314.15 K, Crystal	223.41 ± 14	–
315 K, Crystal	224.06 ± 14	–
315.15 K, Crystal	224.2 ± 14	–
316.15 K, Crystal	225.05 ± 14	–
317.15 K, Crystal	225.99 ± 14	–
318.15 K, Crystal	226.72 ± 14	–
319.15 K, Crystal	227.57 ± 14	–
320 K, Crystal	228.13 ± 14	–
320.15 K, Crystal	228.44 ± 14	–
321.15 K, Crystal	229.1 ± 14	–
322.15 K, Crystal	229.81 ± 14	–
323.15 K, Crystal	230.76 ± 14	–
324.15 K, Crystal	231.54 ± 14	–
325 K, Crystal	232.15 ± 14	–
325.15 K, Crystal	232.32 ± 14	–
326.15 K, Crystal	233.13 ± 14	–
327.15 K, Crystal	234.07 ± 14	–
328.15 K, Crystal	234.91 ± 14	–
329.15 K, Crystal	235.68 ± 15	–
330 K, Crystal	236.23 ± 15	–
330.15 K, Crystal	236.5 ± 15	–
331.15 K, Crystal	237.35 ± 15	–
332.15 K, Crystal	238.2 ± 15	–
333.15 K, Crystal	238.98 ± 15	–
334.15 K, Crystal	239.74 ± 15	–
335 K, Crystal	240.51 ± 15	–
335.15 K, Crystal	240.54 ± 15	–
336.15 K, Crystal	241.37 ± 15	–
337.15 K, Crystal	242.09 ± 15	–
338.15 K, Crystal	242.99 ± 15	–
339.15 K, Crystal	244.05 ± 15	–
340 K, Crystal	245.1 ± 15	–
340.15 K, Crystal	244.86 ± 15	–
341.15 K, Crystal	245.84 ± 15	–
342.15 K, Crystal	246.78 ± 15	–
343.15 K, Crystal	247.9 ± 15	–
345 K, Crystal	250.14 ± 15	–
384.05 K, Liquid	437.55 ± 27	–
384.15 K, Liquid	437.54 ± 27	–
385 K, Liquid	437.31 ± 27	–
385.15 K, Liquid	437.23 ± 27	–
386.15 K, Liquid	436.89 ± 27	–
387.15 K, Liquid	436.55 ± 27	–
388.15 K, Liquid	436.95 ± 27	–
389.15 K, Liquid	436.95 ± 27	–
390 K, Liquid	437.71 ± 27	–
390.15 K, Liquid	437.09 ± 27	–
391.15 K, Liquid	437.18 ± 27	–
392.15 K, Liquid	437.31 ± 27	–
393.15 K, Liquid	437.7 ± 27	–
394.15 K, Liquid	438.11 ± 27	–
395 K, Liquid	438.53 ± 27	–
395.15 K, Liquid	438.36 ± 27	–
396.15 K, Liquid	438.65 ± 27	–
397.15 K, Liquid	439 ± 27	–
398.15 K, Liquid	439.02 ± 27	–
399.15 K, Liquid	439.36 ± 27	–
400 K, Liquid	439.66 ± 27	–
400.15 K, Liquid	439.81 ± 27	–
401.15 K, Liquid	440.13 ± 27	–
402.15 K, Liquid	440.23 ± 27	–
403.15 K, Liquid	440.54 ± 27	–
404.15 K, Liquid	441 ± 27	–
405 K, Liquid	440.98 ± 27	–
405.15 K, Liquid	441.38 ± 27	–
406.15 K, Liquid	441.87 ± 27	–
407.15 K, Liquid	442.08 ± 27	–
408.15 K, Liquid	442.44 ± 27	–
409.15 K, Liquid	442.7 ± 27	–
410 K, Liquid	442.38 ± 27	–
410.15 K, Liquid	442.88 ± 27	–
411.15 K, Liquid	443.4 ± 27	–
412.15 K, Liquid	443.35 ± 27	–
413.15 K, Liquid	443.38 ± 27	–
414.15 K, Liquid	443.78 ± 27	–
415 K, Liquid	443.73 ± 27	–
415.15 K, Liquid	443.82 ± 27	–
416.15 K, Liquid	444.07 ± 27	–
417.15 K, Liquid	444.35 ± 27	–
418.15 K, Liquid	444.54 ± 27	–
419.15 K, Liquid	444.75 ± 27	–
420 K, Liquid	444.92 ± 27	–
420.15 K, Liquid	444.83 ± 27	–
421.15 K, Liquid	444.89 ± 27	–
422.15 K, Liquid	445.1 ± 27	–
423.15 K, Liquid	445.32 ± 27	–
424.15 K, Liquid	445.31 ± 27	–
425 K, Liquid	445.83 ± 27	–
425.15 K, Liquid	445.36 ± 27	–
426.15 K, Liquid	445.64 ± 27	–
427.15 K, Liquid	445.75 ± 27	–
428.15 K, Liquid	445.78 ± 27	–
429.15 K, Liquid	445.83 ± 27	–
430 K, Liquid	446.33 ± 28	–
430.15 K, Liquid	445.91 ± 27	–
431.15 K, Liquid	446.11 ± 28	–
432.15 K, Liquid	446.26 ± 28	–
433.15 K, Liquid	446.16 ± 28	–
434.15 K, Liquid	446.18 ± 28	–
435 K, Liquid	446.32 ± 28	–
435.15 K, Liquid	446.7 ± 28	–
436.15 K, Liquid	446.78 ± 28	–
437.15 K, Liquid	446.54 ± 28	–
438.15 K, Liquid	446.6 ± 28	–
